Consider two molecules from article PMC9011347, “Small-Molecule Inhibitors Targeting Lipolysis in Human Adipocytes” (Journal of the American Chemical Society, 2022).

Test [1] has as its target T1, c1 (human aa 1–158 and mouse aa 159–288) (Homo sapiens, UniProt Q96AD5, L232M/Q250R/R257Q).
T1 construct: c1 (human aa 1–158 and mouse aa 159–288); host or cells: Expi293 cells, crude lysate
Briefly: TAG hydrolase assay, chimeric ATGL variants. As to conditions: chimeric variant c1. The class given is biochemical. The source says: (§1) Since experimental three-dimensional (3D) structures for ATGL are currently not available, we utilized chimeric variants of mouse and human ATGL for the identification of binding sites. The constructs c1–c9 (Figure 5a) comprised the N-terminal […] of ATGL, which are sufficient to retain enzymatic activity.[50] In variants c1 and c2, exchange of the N-terminal 158 aa between human and mouse ATGL switched inhibitor reactivity.
(§2) Figure 5 Analysis of chimeric proteins comprising human and mouse ATGL. (a) Schematic view of the minimal active domain of wild-type and chimeric ATGL variants (c1–c9). Nonidentical aa are indicated in blue and red for mouse and human ATGL, respectively. ATGL variants were expressed in Expi293 cells and TAG hydrolase activity was determined in cell lysates in the presence or absence of NG-497 (10 μM) and Atglistatin (10 μM), respectively. Inhibition of ATGL variants by respective inhibitors (tick mark) and lack of inhibition (cross) is indicated at the right edge. The expression of all ATGL variants was confirmed by Western blotting analysis (Figure S6). (b) Dose-dependent inhibition of human ATGL (aa 1–288) and c1 (human aa 1–158 and mouse aa 159–288) by NG-497. (c) Dose-dependent inhibition of mouse ATGL (aa 1–288) and c2 (mouse aa 1–158 and human aa 159–288) by Ai. IC50 values are shown in the insets. Data are presented as relative inhibition of respective DMSO controls and are indicated as mean ± SD. (d) 3D homology model of the minimal active domain of mouse ATGL (M1–L254) depicted as a cartoon. Residues 1–178 are in blue, and residues 179–254 are in gray. S47 and D166 comprising the active site are represented as green sticks. T101, C106, R109, N111, and S133 are colored in orange, A60, N68, I69, T93, C97, and T146 are colored in magenta. TEXT PRINTED IN THE PICTURE: (b) NG-497: IC50 [μM] (human): 1.3±0.1; IC50 [μM] (c1): 1.3±0.1 | (b) Ai: IC50 [μM] (human): n.det.; IC50 [μM] (c1): n.det. | (c) NG-497: IC50 [μM] (mouse): n.det.; IC50 [μM] (c2): n.det. | (c) Ai: IC50 [μM] (mouse): 2.5±0.3; IC50 [μM] (c2): 2.4±0.1 […]
(§3) Experimental details, materials, and methods
(§4) Expression of recombinant ATGL constructs and preparation of cell lysates. Expi293 cells were cultivated in Expi293 Expression Medium (GIBCO, Thermo Fisher Scientific, Waltham, USA) at standard conditions (37°C, 5% CO2, 95% humidified atmosphere, 125 rpm). DNA constructs containing ATGL from different species and chimeric ATGL variants in pcDNA3.1(+)myc-His C Vector were obtained from BioCat GmbH (Heidelberg, Germany). […] Protein concentrations were determined using Bio-Rad protein assay (Bio-Rad 785, Bio-Rad Laboratories, Munich, Germany) using BSA as standard. […]

For test [2], the target named is T2, c2 (mouse aa 1–158 and human aa 159–288) (Mus musculus, UniProt Q8BJ56, M232L/Q257R/R250Q).
T2 construct: host or cells: Expi293 cells, cell lysate
In words: TAG hydrolase assay, chimeric ATGL variants. Type of test: biochemical. As to conditions: chimeric variant c2.
Source text: as §1, §2, §3, §4

SMILES strings stand for the structures. Several values for one entry are separate records, joined by “and”; a condition that tells them apart may be missing. Equal values may be shown once. Read-outs that look alike come from different tables or passages of the source.

For orientation: IC50 means the concentration that inhibits the measured activity by half.

T2 sequence (Q8BJ56 with tags, fused parts or gaps M232L/R250Q/Q257R): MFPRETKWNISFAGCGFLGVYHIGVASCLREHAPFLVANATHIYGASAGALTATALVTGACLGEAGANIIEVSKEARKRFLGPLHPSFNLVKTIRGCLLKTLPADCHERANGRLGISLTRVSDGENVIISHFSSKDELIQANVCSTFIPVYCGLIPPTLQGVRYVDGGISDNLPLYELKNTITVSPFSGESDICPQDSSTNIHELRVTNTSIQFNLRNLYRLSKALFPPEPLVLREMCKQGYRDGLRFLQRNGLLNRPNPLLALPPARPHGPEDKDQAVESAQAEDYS
T1 sequence (Q96AD5 with tags, fused parts or gaps L232M/Q250R/R257Q): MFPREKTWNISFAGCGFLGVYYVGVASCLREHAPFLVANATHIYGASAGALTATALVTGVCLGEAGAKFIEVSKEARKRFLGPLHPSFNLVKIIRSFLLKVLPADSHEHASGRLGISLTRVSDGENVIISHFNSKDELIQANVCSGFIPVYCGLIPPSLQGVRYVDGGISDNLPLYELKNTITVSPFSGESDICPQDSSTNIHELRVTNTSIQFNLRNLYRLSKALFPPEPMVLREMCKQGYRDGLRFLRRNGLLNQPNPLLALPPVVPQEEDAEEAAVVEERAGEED

For `CN(C)C(=O)Nc1cccc(-c2ccc(N(C)C)cc2)c1` [Atglistatin, reference compound], the IC50 result is “ineffective” in test [1]; ~2500 nM and 2400 nM in test [2] (read-out: IC50).

In the case of `CCOc1ccc(-c2cc(OC)cc(C(=O)OC(C)C)n2)cc1` [NG-497], the figures for the IC50 in test [1] (read-out: IC50) and in test [2] were 1300 nM and “ineffective”, respectively.
